Key:
mouse liver mitochondria = test: Mitochondrial oxygen consumption (Clark-type oxygen electrode); type: biochemical; conditions: for Effect on basal rate of O2 consumption: 1–100 µM; for PC100 (µM) for Mito. O2 consumption: 100% promoting concentration: doubles the basal rate of oxygen consumption, 30°C
Procedure: Mitochondria were isolated from mouse liver (ICR; 7–10 week-old females) by differential centrifugation as described previously. Cells were homogenized in a Potter glass homogenizer with H-Buffer (250 mM sucrose, 10 mM Tris-HCl pH 7.4), and centrifuged at 800g for 1 min at 4°C. The supernatant was centrifuged at 6,000g for 5 min, and the resulting pellet, the crude mitochondrial fraction, was suspended in H-Buffer. The suspension was layered over a discontinuous sucrose gradient consisting of 1.1 M and 1.6 M sucrose in a Tris buffer (10 mM Tris-HCl pH 7.4), and centrifuged for 3 h at 90,000g at 4°C. The interface was collected in Tris buffer and centrifuged at 6,000g for 5 min. The resulting pellets were suspended in Tris buffer and used for experiments after confirming the presence of the mitochondrial marker cytochrome c.
Mitochondrial oxygen consumption was determined using a Clark-type oxygen electrode (Strathkelvin Instruments Ltd., North Lanarkshire, Scotland) as described, [39]. The mitochondria-enriched fraction was incubated at 30°C in oxygen measurement buffer (225 mM mannitol, 75 mM sucrose, 10 mM KCl, 0.1 mM EDTA, 3 mM phosphate, 5 mM succinate, 5 mM glutamate, and 20 mM Tris-HCl pH 7.4) in the presence or absence of various concentrations of the DIF-like molecules or CCCP. After recording ‘State 4’ of the respiration reaction, an aliquot of ADP was added to a final concentration of 200 µM to induce ‘State 3’. The PC100 (100% promoting concentration) of each additive was defined as the drug concentration that doubled the basal rate of oxygen consumption during State 3, which was calculated from the dose-response plot for the rate of oxygen consumption (Figure 8).

[1] = tested on: cyclin D1 and cyclin D3 in HeLa cells; test: Western blotting of cyclin D expression; type: cell-based, human; conditions: 20 h, DIF-3 20 µM, Bu-DIF-3 5–7.5 µM, BODIPY-DIF-3 20 µM, CCCP 10 µM, azide 0.01%
Procedure: HeLa cells were incubated for 20 h with 1 ml of DMEM-FBS containing the indicated additives in 12-well plates (2–4×10^5 cells/well), washed twice with PBS(–), harvested by adding 100–200 µl of an SDS-sample buffer solution (in proportion to cell density: relative cell number), sonicated (heated), and used for SDS-PAGE. Western blot transfer and immunoblotting were performed as described previously, by using a primary antibody for cyclin D1, cyclin D2, cyclin D3, or GAPDH, and a second antibody, an alkaline phosphatase-conjugated anti-mouse or anti-rabbit IgG antibody. […] Visualized protein bands were then digitized and quantified by using Adobe Photoshop CS4 (version 11.0) (Adobe, San Jose, CA, USA) and ImageJ Software (version 1.4) (http://rsb.info.nih.gov/ij/).

HeLa cells [2] = test: Withdrawal of BODIPY-DIF-3: recovery of cell growth and mitochondrial morphology; type: cell-based, human; conditions: 20 µM 3 days, then 2 days DMSO
Procedure: In the assay of the effect of withdrawal of BODIPY-DIF-3 on cell growth (Figure 6A), HeLa cells were incubated for 3 days with 2 ml of DMEM-FBS containing 20 µM BODIPY-DIF-3 in 35-mm tissue culture dishes (Becton Dickinson, Franklin Lakes, NJ, USA) (5×10^3 cells/dish), washed 2 times with 2 ml of PBS(–), and further incubated for 2 days with 2 ml of DMEM-FBS containing 0.2% DMSO or 20 µM BODIPY-DIF-3; meanwhile, control cells were incubated for 5 days with 2 ml of DMEM-FBS containing 0.2% DMSO. Relative cell number was assessed as described above, and all experiments were performed in triplicate.

HeLa cells [3] = test: Electron microscopy of organelle morphology; type: cell-based, human; conditions: 3 days, Bu-DIF-3 5 µM, BODIPY-DIF-3 20 µM
Procedure: HeLa cells were incubated for 3 days with 2 ml DMEM-FBS containing 0.2% DMSO and 5 µM Bu-DIF-3 or 20 µM BODIPY-DIF-3 in 35-mm plastic dishes at 2×10^4 cells/dish. The cells were fixed at 4°C for 30 min with PB (0.1 M phosphate buffer, pH 7.4) containing 2% paraformaldehyde and 2% glutaraldehyde and then with PB containing 2% glutaraldehyde at 4°C overnight. The cell samples were rinsed 3 times with PB for 30 min each, followed by post fixation with 2% OsO4 in PB at 4°C for 1 h. The samples were dehydrated through a graded ethanol (EtOH) series starting with 50% and 70% EtOH for 5 min each at 4°C, then 90% EtOH for 5 min at room temperature, followed by three changes of 100% EtOH for 5 min each at room temperature. The samples were then transferred to a resin (Quetol-812; Nisshin EM Co., Tokyo, Japan) and polymerized at 60°C for 48 h. Ultra-thin (70 nm) sections were cut with an ultramicrotome (ULTRACUT UCT; Leica, Wetzlar, Germany), collected onto copper grids, stained with 2% uranyl acetate at room temperature for 15 min, and then rinsed with distilled water. The sections were then stained with Lead stain solution (Sigma-Aldrich) at room temperature for 3 min. The sections were observed under a transmission electron microscope (JEM-1200Ex; JEOL Ltd., Tokyo, Japan) at an acceleration voltage of 80 kV. Digital images (2048×2048 pixels) were taken with a charge-coupled device camera (VELETA; Olympus Soft Imaging Solutions GmbH, Tokyo, Japan).

[4] = tested on: mitochondrial malate dehydrogenase (mMDH); set-up: method as in PMID 20173310; conditions: cited from earlier work
[5] = tested on: calmodulin-dependent cyclic nucleotide phosphodiesterase (PDE1); set-up: method as in PMID 15059913; conditions: cited from earlier work

Compound | Effect on basal rate of O2 consumption (mouse liver mitochondria) | PC100 (µM) for Mito. O2 consumption (mouse liver mitochondria) | Expression of cyclin D1 [1] | Expression of cyclin D3 [1] | Reversibility of action after withdrawal at Day 3 (HeLa cells [2]) | Lipid bodies in treated cells (HeLa cells [3]) | Number of swollen mitochondria (HeLa cells [3]) | Total number of mitochondria (HeLa cells [3]) | Effect on mitochondrial O2 consumption (mouse liver mitochondria; 0.1–1 µM) | Binding to and inhibition of mMDH [4] | Inhibition of PDE1 [5]
CCCCCC(=O)c1c(O)cc(OCCCCNC(=O)CCC2=[N+]3C(=Cc4c(C)cc(C)n4[B-]3(F)F)C=C2)c(Cl)c1O [BODIPY-DIF-3] | dose-dependently promoted | 25 µM | significantly decreased | significantly decreased | reversible | many lipid bodies were observed | increase in the number of swollen mitochondria | tended to cause a decrease | – | – | –
CCCCCC(=O)c1c(O)cc(OCCCC)c(Cl)c1O [Bu-DIF-3, 1-(3-chloro-2,6-dihydroxy-4-butoxyphenyl)hexan-1-one] | dose-dependently promoted | 1.7 µM | significantly decreased | significantly decreased | – | many lipid bodies were observed | increase in the number of swollen mitochondria | tended to cause a decrease | – | – | –
N#CC(C#N)=NNc1cccc(Cl)c1 [CCCP, carbonyl cyanide m-chlorophenylhydrazone, reference compound] | – | 0.43 µM | significantly suppressed | significantly suppressed | – | – | – | – | promoted mitochondrial O2 consumption in a dose-dependent manner | – | –
CCCCCC(=O)c1c(O)cc(OC)c(Cl)c1O [DIF-3, 1-(3-chloro-2,6-dihydroxy-4-methoxyphenyl)hexan-1-one] | dose-dependently promoted | 12 µM | significantly decreased | significantly decreased | – | – | – | – | – | neither binds nor inhibits mMDH | direct inhibitors of PDE1
